In paper PMC8835363, “Arachidin-1, a Prenylated Stilbenoid from Peanut, Induces Apoptosis in Triple-Negative Breast Cancer Cells” (International Journal of Molecular Sciences, 2022):

Assays:
[1] = tested on: UDP-glucuronosyltransferases; conditions: in vitro metabolism; cited from earlier work
[2] = tested on: human leukemia HL-60 cell line; set-up: method as in PMID 21067217; conditions: 72 h treatment; cited from earlier work
[3] = tested on: caspase-3/7 activity in MDA-MB-231 cells; test: Apo-ONE Homogenous Caspase-3/7 Assay; assay type: cell-based, human; conditions: 0.1, 1, 10 µM, 48 h
Procedure: (§1) The Apo-ONE® Homogenous Caspase-3/7 Assay (Promega, Madison, WI, USA) was used for measuring caspase-3/7 activity. Cells (10,000 cells/well) were seeded in 96-well plates. After 24 h, the cells were treated with A-1, A-3, and RES, and incubated for an additional 48 h at 37 °C, with a humidified atmosphere of 5% CO2 (however, MDA-MB-436 cells were incubated in 0% CO2). Control groups were cells treated with 0.01% DMSO (ATCC; Manassas, VA, USA). According to the manufacturer, after 48 h of treatment, the caspase reagent was added to the cells and the plates were incubated at room temperature in the dark for 1 h. Then, fluorescence was measured every hour for a total of 4 h using the Cytation^TM 5 (BioTek; Winooski, VT, USA) plate reader at an excitation wavelength of 485 ± 20 nm and emission of 530 ± 25 nm.

[4] = tested on: caspase-3/7 activity in MDA-MB-436 cells; test: Apo-ONE Homogenous Caspase-3/7 Assay; assay type: cell-based, human; conditions: 0.1, 1, 10 µM, 48 h
Procedure: as §1

[5] = tested on: caspase-8, 9, PARP, and survivin proteins in MDA-MB-231 cells; test: Western blot of caspase-8, caspase-9, PARP and survivin; assay type: cell-based, human; conditions: 0.1 and 1 µM, 24 h
Procedure: (§2) MDA-MB-231 and MDA-MB-436 cells (10^7 and 5 × 10^6 cells/3 mL medium, respectively) were seeded in a 6-well cell culture plate. After 24 h, the cells were treated with A-1 (0.1 µM and 1 µM) for 24 h. Cells treated with 0.01% DMSO (ATCC; Manassas, VA, USA) were included as a control. Protein extracts were prepared using RIPA Lysis and Extraction Buffer plus Halt™ Protease Inhibitor Cocktail (Thermo Fisher Scientific; Waltham, MA, USA). The protein concentration was measured using the Bradford assay (Thermo Fisher Scientific; Waltham, MA, USA). Protein extracts (60 µg) with 5 µL of 2X Novex™ Tris-Glycine SDS Sample Buffer (Thermo Fisher Scientific; Waltham, MA, USA) and 1% dithiothreitol (DTT; Thermo Fisher Scientific; Waltham, MA, USA) were denatured and separated by electrophoresis using SDS-PAGE in 10% Tris-Glycine pre-cast gel (Novex™ WedgeWell™, Thermo Fisher Scientific; Waltham, MA, USA). The gel was run in 1X Novex™ Tris-Glycine SDS running buffer (Thermo Fisher Scientific; Waltham, MA, USA) at a constant 125 voltage for 90 min. The proteins were transferred into Trans-Blot Turbo Mini 0.2 µm PVDF membranes (Bio-Rad Laboratories; Hercules, CA, USA) using the Trans Blot Turbo System (Bio-Rad Laboratories; Hercules, CA, USA) at 1.3 amp and up to 25 volts for 7 min. After the membranes dried completely, they were incubated in 1X Tris Buffered Saline (TBS; Bio-Rad; Hercules, CA, USA) for 5 min at room temperature. Then, the membranes were blocked with 5% non-fat dry milk in 1X TBS containing 1% Tween 20 (TBST; Bio-Rad; Hercules, CA, USA) for 1 h at room temperature. The membranes were incubated with specific primary antibodies at 4 °C overnight. The primary antibodies and dilutions included rabbit anti-caspase-8 (D35G2) mAb (1:500; Cell Signaling Technology; Danvers, MA, USA), rabbit anti-PARP mAb (1:500; Cell Signaling Technology; Danvers, MA, USA), rabbit anti-human survivin polyclonal antibody (0.5 µg/mL; R&D Systems; Minneapolis, MN, USA), mouse anti-human caspase-9 mAb (1 µg/mL; R&D Systems; Minneapolis, MN, USA), mouse anti-vinculin antibody (2 µg/mL; R&D Systems; Minneapolis, MN, USA), and mouse anti-human GAPDH antibody (0.05 µg/mL; R&D Systems; Minneapolis, MN, USA). Afterwards, the membranes were incubated with HRP-conjugated goat anti-rabbit IgG secondary antibody (1:2000; Cell Signaling Technology; Danvers, MA, USA) and HRP-conjugated AffiniPure goat anti-mouse IgG secondary antibody (1:50,000; Jackson Immunoresearch Laboratories; West Grove, PA, USA) for 1 h at room temperature. The membranes were washed with 1X TBST and then incubated with SuperSignal™ West Pico PLUS Chemiluminescent Substrate (Thermo Fisher Scientific; Waltham, MA, USA). The membranes were scanned and analyzed using the Li-COR Odyssey® Fc Imaging System (LI-COR Biosciences; Lincoln, NE, USA).

[6] = tested on: caspase-8, 9, PARP, and survivin proteins in MDA-MB-436 cells; test: as above; assay type: cell-based, human; conditions: 0.1 and 1 µM, 24 h
Procedure: as §2

MCF-10A cells = test: RealTime-Glo MT cell viability (cytotoxicity) assay; assay type: cell-based, human; conditions: 1 µM, 24, 48, 72 h
Procedure: The cytotoxicity of RES, A-1, and A-3 was measured using the RealTime-Glo^TM MT Cell Viability Assay (Promega, Madison, WI, USA). The cells (10,000 cells/well) were seeded into 96-well plates. After 24 h, they were treated with various 10-fold dilutions of RES, A-1, and A-3 with concentrations ranging from 0.1 µM to 1000 µM. Cells with 0.1% DMSO (ATCC; Manassas, VA, USA) were included as a control. Luminescence was measured every 12 h for 72 total hours in a Cytation^TM 5 (BioTek, Winooski, VT, USA) plate reader. All experiments were performed in triplicates.

[7] = tested on: peripheral blood mononuclear cells (PBMCs); set-up: method as in PMID 21067217; conditions: cited from earlier work

Structure (SMILES): CC(C)/C=C/c1c(O)cc(/C=C/c2ccc(O)c(O)c2)cc1O [A-1, arachidin-1]
- glucuronidated products compared to non-prenylated analogs piceatannol and RES [1]: lower glucuronidated products
- IC50 [2]: 4.2 µM
- caspase-3/7 activity vs control [3]: significant increase of dose-dependent caspase-3/7 activities
- caspase-3/7 activity vs control [4]: significant increase of dose-dependent caspase-3/7 activities
- cleaved PARP level [5]: only slightly increased and not statistically significant
- cleaved caspase-9 level [5]: only significantly increased in A-1 1 µM
- full-length PARP protein level [5]: significantly decreased levels
- full-length caspase-8 level [5]: no significant change
- survivin expression [5]: downregulated
- cleaved PARP level [6]: significantly increased
- cleaved caspase-9 level [6]: significantly increased
- full-length caspase-8 level [6]: no significant change
- survivin expression [6]: downregulated
- cytotoxicity in non-cancerous epithelial cells (MCF-10A cells): did not show any statistically significant cytotoxicity
- cytotoxic effects on PBMCs [7]: no cytotoxic effects
